Entries after “also recorded” stand apart in the source; their conditions may differ. Like-named read-outs stand apart in the source and are kept apart here.
Assays:
[1] = biological target: T1, APEH (partially purified from human red blood cells) (Homo sapiens, UniProt P13798); assay: APEH enzyme inhibition assay with substrate Ac-Met-AMC; type: biochemical; conditions: inhibitor 62 µM, APEH sample 0.7 μg, pre-incubated 30 min at 37 °C, then Ac-Met-AMC added; data not shown
T1 construct: incubated with APEH partially purified from human blood cells; from tissue; host or cells: human red blood cells (erythrocyte hemolysate from donors' blood)
T1 sequence (P13798 1-732): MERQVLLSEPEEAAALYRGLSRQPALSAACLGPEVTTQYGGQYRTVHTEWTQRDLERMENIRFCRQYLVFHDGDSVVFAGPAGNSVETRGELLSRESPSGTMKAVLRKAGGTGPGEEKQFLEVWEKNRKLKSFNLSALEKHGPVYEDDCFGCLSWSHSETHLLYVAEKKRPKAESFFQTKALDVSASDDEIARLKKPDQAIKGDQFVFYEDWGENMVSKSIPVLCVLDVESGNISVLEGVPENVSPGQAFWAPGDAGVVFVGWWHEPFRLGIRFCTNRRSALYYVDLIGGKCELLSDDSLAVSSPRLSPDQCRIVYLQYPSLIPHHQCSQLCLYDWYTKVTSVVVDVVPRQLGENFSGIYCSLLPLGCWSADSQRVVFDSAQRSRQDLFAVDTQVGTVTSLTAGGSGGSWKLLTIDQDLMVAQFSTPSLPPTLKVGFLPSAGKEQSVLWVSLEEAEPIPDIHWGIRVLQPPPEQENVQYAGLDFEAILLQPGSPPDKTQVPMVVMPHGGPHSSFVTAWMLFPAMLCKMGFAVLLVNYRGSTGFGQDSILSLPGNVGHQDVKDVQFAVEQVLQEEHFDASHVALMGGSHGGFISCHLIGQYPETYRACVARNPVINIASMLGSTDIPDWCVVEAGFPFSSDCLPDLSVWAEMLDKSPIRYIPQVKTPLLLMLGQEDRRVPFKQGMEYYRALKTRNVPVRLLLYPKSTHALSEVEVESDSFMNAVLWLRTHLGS
Description: Human APEH was obtained as a partially purified product from the red blood cells by a combination of anion exchange and gel filtration chromatography as described. The purification procedure was monitored by SDS-PAGE analysis of active pooled fractions (Supplementary Figure S3). Specifically, each peak fraction eluted from the gel filtration column was assayed with the specific APEH substrate Ac-Met-AMC and analyzed by Western blotting to assess the identity of the enzyme, using the commercial APEH from porcine liver (APEHpl) as control (Supplementary Figure S4A,B). The molecular mass determined by SDS-PAGE of the partially purified protein was 75 kDa, in agreement with that predicted on the basis of the amino acid sequence. Moreover, gel filtration chromatography on Superdex 200 column allowed estimating a molecular mass for the native APEH of […] as calculated by the calibration curve (Supplementary Figure S4A), confirming that the enzyme is a homo-tetramer composed of four 75 kDa subunits, as already reported.
Blood samples were taken from donors using syringes with heparin. […] Enzyme purification was monitored using Ac-Met-7-amino-4-methylcoumarin (AMC) as substrate. Active fractions were analyzed by SDS-PAGE (12%) in order to evaluate the enrichment of the protein during the various purification steps. […]

APEH [2] = assay: APEH partially purified from human blood cells (0.7 μg, 24.000 total units) in Tris-HCl 25 mM pH 7.5; conditions: 37 °C, up to 48 h
truncated form of APEH = conditions: cited from earlier work
APEH [3] = conditions: cited from earlier work

CC(C)CC(O)(CC(C)C)c1cnn(C(=O)N2CCCC2)n1 [AA74-1]
inhibition of APEH activity [1]: totally inhibited

Ac-EYM(ox)FM(ox)QKYPHTHLVQQA-NH2
cleaved bond (APEH [2]): H59-L60, major; also recorded: Q62-Q; also recorded: L60-V

Ac-EYMFMQKYPHTHLVQQA-NH2
not cleaved (APEH [2]): No cleavage was observed; N.D. (not degraded) after 48 h

GIVEQC(ox)C(ox)ASVC(ox)SLYQLENYC(ox)N
cleaved bond (truncated form of APEH): A-S and Y-Q

…^205FGERALKAWSVARL ↓ SQKFPKAEF^227… …^397LGEYGFQNALIVRY ↓ TRKVPQVST^419… …^493DETYVPKAFDEKLF ↓ TFHADICTL^515…
cleaved bond (APEH [3]): L-S and Y-T and F-T
